IC50 data for 26 molecules are collected here from US11142515B2, “Pyrazolyl-ureas as kinase inhibitors” (RESPIVERT LIMITED, priority 2014, dated 2021).

Assay [1] addresses T1, p38 MAPKα isoform (MAPK14) (Homo sapiens, UniProt Q16539).
T1 construct: purchased Life Technologies
In words: p38 MAPKα enzyme inhibition (Z-LYTE FRET). The note with it: Table 2B, unit inferred; read-out: p38 MAPKα (Enzyme Profile). The assay is classed as biochemical. As for the experimental part: (§1) The enzyme inhibitory activities of compounds disclosed herein were determined by FRET using synthetic peptides labelled with both donor and acceptor fluorophores (Z-LYTE, Life Technologies, Paisley, UK).
The inhibitory activities of compounds of the invention against the p38 MAPKα isoform (MAPK14: Life Technologies), were evaluated indirectly by determining the level of activation/phosphorylation of the target peptide of the p38 MAPKα down-stream molecule, MAPKAP-K2. The enzyme (40 ng/mL, 2.5 μL) was incubated with the test compound (2.5 μL of either 40 μg/mL, 12 μg/mL, 4 μg/mL, 1.2 μg/mL, 0.4 μg/mL, 0.12 μg/mL, 0.04 μg/mL, 0.012 μg/mL, 0.004 μg/mL or 0.0012 μg/mL) for 2 h at RT. […] Development reagent (protease, 5 μL) was added for 1 h prior to detection in a fluorescence microplate reader (EnVision, Perkin Elmer, Waltham, Mass., USA).
(§2) In all cases, the site-specific protease cleaves non-phosphorylated peptide only and eliminates the FRET signal. Phosphorylation levels of each reaction were calculated using the ratio of coumarin emission (donor) over fluorescein emission (acceptor), for which low ratios indicate high phosphorylation and high ratios indicate low phosphorylation levels.

A further assay concerns the target T2, p38MAPKγ (MAPK12) (Homo sapiens, UniProt P53778).
T2 construct: purchased Life Technologies
T2 sequence (P53778 1-367): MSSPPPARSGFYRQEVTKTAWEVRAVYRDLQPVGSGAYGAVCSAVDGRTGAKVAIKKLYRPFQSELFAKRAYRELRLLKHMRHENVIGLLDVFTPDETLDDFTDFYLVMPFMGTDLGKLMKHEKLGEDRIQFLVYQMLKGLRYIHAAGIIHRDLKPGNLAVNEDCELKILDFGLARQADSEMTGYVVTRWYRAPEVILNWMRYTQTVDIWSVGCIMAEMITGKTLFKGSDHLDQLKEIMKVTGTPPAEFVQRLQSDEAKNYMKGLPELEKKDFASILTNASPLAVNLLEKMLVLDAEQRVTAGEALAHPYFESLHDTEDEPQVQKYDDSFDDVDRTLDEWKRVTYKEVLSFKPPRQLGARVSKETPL
The assay can be described thus: p38 MAPKγ enzyme inhibition (Z-LYTE FRET). In kind it is biochemical. The note with it: Table 2B, unit inferred; read-out: p38 MAPKγ (Enzyme Profile). As for the experimental part: as §1
The inhibitory activities of compounds of the invention against p38MAPKγ (MAPK12: Life Technologies), were evaluated by determining the level of activation/phosphorylation of the target peptide. The enzyme (800 ng/mL, 2.5 μL) was incubated with the test compound (2.5 μL at either 40 μg/mL, 12 μg/mL, 4 μg/mL, 1.2 μg/mL, 0.4 μg/mL, 0.12 μg/mL, 0.04 μg/mL, 0.012 μg/mL, 0.004 μg/mL or 0.0012 μg/mL) for 2 h at RT. The FRET peptides (8 μM, 2.5 μL), and appropriate ATP solution (2.5 μL, 400 μM) were then added to the enzymes/compound mixtures and incubated for 1 h at RT. Development reagent (protease, 5 μL) was added for 1 h prior to detection in a fluorescence microplate reader (EnVision, Perkin Elmer).
as §2

T1 sequence (Q16539 whole entry, canonical isoform): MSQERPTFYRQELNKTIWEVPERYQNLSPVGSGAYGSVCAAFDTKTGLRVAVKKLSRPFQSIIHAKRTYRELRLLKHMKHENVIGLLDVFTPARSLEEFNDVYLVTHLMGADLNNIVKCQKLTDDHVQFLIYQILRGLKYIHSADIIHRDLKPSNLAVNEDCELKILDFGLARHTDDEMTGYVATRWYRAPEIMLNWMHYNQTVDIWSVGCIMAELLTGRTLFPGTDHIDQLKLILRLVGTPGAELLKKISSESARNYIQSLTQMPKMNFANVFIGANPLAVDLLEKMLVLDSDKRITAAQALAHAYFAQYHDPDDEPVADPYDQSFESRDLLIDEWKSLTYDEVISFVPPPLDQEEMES

For `COCCN(C)C(=O)c1cnc(Nc2cc(COc3ccc(NC(=O)Nc4cc(C(C)(C)C)nn4-c4ccc(C)cc4)c4ccccc34)ccn2)cn1` [Example 60], the values for the IC50 (in assay [1]; at p38MAPKγ (MAPK12)) were 14 nM and 144 nM, respectively.
In the same order, the values of `Cc1cccc(-n2nc(C(C)(C)C)cc2NC(=O)Nc2ccc(OCc3ccnc(Nc4cnc(CO)cn4)c3)c3ccccc23)c1` [Example 61] are 5.6 nM and 32 nM.
In the same order, the values of `CCc1cncc(Nc2cc(COc3ccc(NC(=O)Nc4cc(C(C)(C)C)nn4-c4cccc(F)c4)c4ccccc34)ccn2)n1` [Example 62] are 24 nM and 560 nM.
As for `CCc1cncc(Nc2cc(COc3ccc(NC(=O)Nc4cc(C(C)(C)C)nn4-c4ccc(OC)nc4)c4ccccc34)ccn2)n1` [Example 63], the IC50 is 25 nM in assay [1] and 312 nM on p38MAPKγ (MAPK12).
In the case of `COCc1ccc(-n2nc(C(C)(C)C)cc2NC(=O)Nc2ccc(OCc3ccnc(Nc4cnccn4)c3)c3ccccc23)cc1` [Example 64], the IC50 came to 9.7 nM in assay [1] and 39 nM at p38MAPKγ (MAPK12).
Consider `CO[C@@H]1CCN(C(=O)c2cnc(Nc3cc(COc4ccc(NC(=O)Nc5cc(C(C)(C)C)nn5-c5ccc(C)cc5)c5ccccc45)ccn3)cn2)C1` [Example 66], for which the IC50 in assay [1] amounted to 28 nM; at p38MAPKγ (MAPK12), 319 nM.
With `CO[C@H]1CCN(C(=O)c2cnc(Nc3cc(COc4ccc(NC(=O)Nc5cc(C(C)(C)C)nn5-c5ccc(C)cc5)c5ccccc45)ccn3)cn2)C1` [Example 67], the values for the IC50 (in assay [1]; on p38MAPKγ (MAPK12)) were 39 nM and 345 nM, respectively.
In the same order, the values of `Cc1ccc(-n2nc(C(C)(C)C)cc2NC(=O)Nc2ccc(OCc3ccnc(Nc4cncc(C(C)C)n4)c3)c3ccccc23)cc1` [Example 68] are 132 nM and 624 nM.
In the same order, the values of `Cc1cccc(-n2nc(C(C)(C)C)cc2NC(=O)Nc2ccc(OCc3ccnc(Nc4cnc(C(=O)N5CC[C@@H](O)C5)cn4)c3)c3ccccc23)c1` [Example 69] are 8 nM and 106 nM.
`CCc1cncc(Nc2cc(COc3ccc(NC(=O)Nc4cc(C(C)(C)C)nn4-c4ccc(C)c(OC)c4)c4ccccc34)ccn2)n1` [Example 70]: the IC50 in assay [1] amounted to 70 nM; at p38MAPKγ (MAPK12) it was 372 nM.
In the same order, the values of `COCc1cccc(-n2nc(C(C)(C)C)cc2NC(=O)Nc2ccc(OCc3ccnc(Nc4cnc(C(=O)N5CCCC5)cn4)c3)c3ccccc23)c1` [Example 71] are 24 nM and 272 nM.
The like results for `Cc1ccc(-n2nc(C(C)(C)C)cc2NC(=O)Nc2ccc(OCc3ccnc(Nc4cnc(C(=O)NCCC(C)(C)O)cn4)c3)c3ccccc23)cc1` [Example 72] were, in that order, 11 nM and 118 nM.
Turning to `COCCN(CCOC)C(=O)c1cnc(Nc2cc(COc3ccc(NC(=O)Nc4cc(C(C)(C)C)nn4-c4ccc(C)cc4)c4ccccc34)ccn2)cn1` [Example 73], the IC50 is 19 nM in assay [1] and 259 nM on p38MAPKγ (MAPK12).
In the same order, the values of `COC(C)(C)CNC(=O)c1cnc(Nc2cc(COc3ccc(NC(=O)Nc4cc(C(C)(C)C)nn4-c4ccc(C)cc4)c4ccccc34)ccn2)cn1` [Example 74] are 43 nM and 482 nM.
In the same order, the values of `CC(C)(C)c1cc(NC(=O)Nc2ccc(OCc3ccnc(Nc4cnccn4)c3)c3ccccc23)n(-c2ccccc2)n1` [Example 75] are 17 nM and 179 nM.
Turning to `COCCN(CCOC)C(=O)c1cnc(Nc2cc(COc3ccc(NC(=O)Nc4cc(C(C)(C)C)nn4-c4cccc(C)c4)c4ccccc34)ccn2)cn1` [Example 76], the figures for the IC50 (in assay [1]; on p38MAPKγ (MAPK12)) were 15 nM and 148 nM, respectively.
In the same order, the values of `CN(C)c1ccc(-n2nc(C(C)(C)C)cc2NC(=O)Nc2ccc(OCc3ccnc(Nc4cnccn4)c3)c3ccccc23)cn1` [Example 78] are 21 nM and 422 nM.
For `Cc1ccc(-n2nc(C(C)(C)C)cc2NC(=O)Nc2ccc(OCc3ccnc(Nc4cnc(C(=O)NCCN5CCCCC5)cn4)c3)c3ccccc23)cc1` [Example 79], the IC50 was under 0.4 nM in assay [1] and 101 nM on p38MAPKγ (MAPK12).
As to `Cc1ccc(-n2nc(C(C)(C)C)cc2NC(=O)Nc2ccc(OCc3ccnc(Nc4cnc(C(=O)NC5CCN(C)CC5)cn4)c3)c3ccccc23)cc1` [Example 80], the results for the IC50 (in assay [1]; on p38MAPKγ (MAPK12)) were under 0.41 nM and 54 nM, respectively.
Take `COc1ccc(-n2nc(C(C)(C)C)cc2NC(=O)Nc2ccc(OCc3ccnc(Nc4cncc(N(C)C)n4)c3)c3ccccc23)cc1` [Example 104, 1-(3-(tert-butyl)-1-(4-methoxyphenyl)-1H-pyrazol-5-yl)-3-(4-((2-((6-(dimethyl-amino)pyrazin-2-yl)amino)pyridin-4-yl)methoxy)naphthalen-1-yl)urea]: the IC50 in assay [1] is 8.9 nM; on p38MAPKγ (MAPK12), 223 nM.
In the same order, the values of `COc1cnc(Nc2cc(COc3ccc(NC(=O)Nc4cc(C(C)(C)C)nn4-c4ccc(C)cc4)c4ccccc34)ccn2)cn1` [Example 105, 1-(3-(tert-butyl)-1-(p-tolyl)-1H-pyrazol-5-yl)-3-(4-((2-((5-methoxypyrazin-2-yl)amino)pyridin-4-yl)methoxy)naphthalen-1-yl) urea] are under 1.59 nM and 4560 nM.
In the same order, the values of `Cc1ccc(-n2nc(C(C)(C)C)cc2NC(=O)Nc2ccc(OCc3ccnc(Nc4cncc(N)n4)c3)c3ccccc23)cc1` [Example 106, 1-(4-((2-((6-aminopyrazin-2-yl)amino)pyridin-4-yl)methoxy)naphthalen-1-yl)-3-(3-(tert-butyl)-1-(p-tolyl)-1H-pyrazol-5-yl)urea] are 3.4 nM and 401 nM.
In the same order, the values of `COCC(=O)Nc1cncc(Nc2cc(COc3ccc(NC(=O)Nc4cc(C(C)(C)C)nn4-c4ccc(C)cc4)c4ccccc34)ccn2)n1` [Example 107, N-(6-((4-(((4-(3-(3-(tert-butyl)-1-(p-tolyl)-1H-pyrazol-5-yl)ureido)naphthalen-1-yl)oxy)methyl)pyridin-2-yl)amino)pyrazin-2-yl)-2-methoxyacetamide] are 27 nM and 5730 nM.
With `COc1ccc(-n2nc(C(C)(C)C)cc2NC(=O)Nc2ccc(OCc3ccnc(Nc4cncc(OC)n4)c3)c3ccccc23)cc1` [Example 108, 1-(3-(tert-butyl)-1-(4-methoxyphenyl)-1H-pyrazol-5-yl)-3-(4-((2-((6-methoxypyrazin-2-yl)amino)pyridin-4-yl)methoxy)naphthalen-1-yl)urea], the IC50 in assay [1] turned out to be 17 nM; at p38MAPKγ (MAPK12), 15500 nM.
The like results for `COc1cncc(Nc2cc(COc3ccc(NC(=O)Nc4cc(C(C)(C)C)nn4-c4ccc(C)s4)c4ccccc34)ccn2)n1` [Example 109, 1-(3-(tert-butyl)-1-(5-methylthiophen-2-yl)-1H-pyrazol-5-yl)-3-(4-((2-((6-methoxypyrazin-2-yl)amino)pyridin-4-yl)methoxy)naphthalen-1-yl) urea] were, in that order, 115 nM and 1330 nM.
The like results for `COc1cncc(Nc2cc(COc3ccc(NC(=O)Nc4cc(C(C)(C)C)nn4-c4ccc(CO)cc4)c4ccccc34)ccn2)n1` [Example 110, 1-(3-(tert-butyl)-1-(4-(hydroxymethyl)phenyl)-1H-pyrazol-5-yl)-3-(4-((2-((6-methoxypyrazin-2-yl)amino)pyridin-4-yl)methoxy)naphthalen-1-yl) urea] were, in that order, 1.6 nM and 23 nM.
